Test results reported in patent publication US11155544B2, “Heterocycle comprising tyrosine kinase inhibitors” (Principia Biopharma Inc., priority 2015, dated 2021).

Target: human recombinant BTK (Homo sapiens (Human), UniProt Q06187)
Assay: BTK Enzymatic Activity Assay (Caliper-based kinase assay)
Format: biochemical
Details: human recombinant BTK (0.5 nM), ATP (16 μM), peptide substrate (1 μM), room temperature for 3 h
Procedure: A Caliper-based kinase assay (Caliper Life Sciences, Hopkinton, Mass.) was used to measure inhibition of BTK kinase activity of a compound of the present disclosure. Serial dilutions of test compounds were incubated with human recombinant BTK (0.5 nM), ATP (16 μM) and a phosphoacceptor peptide substrate FAM-GEEPLYWSFPAKKK-NH2 (1 μM) at room temperature for 3 h. The reaction was then terminated with EDTA, final concentration 20 mM and the phosphorylated reaction product was quantified on a Caliper Desktop Profiler (Caliper LabChip 3000). Percent inhibition was calculated for each compound dilution and the concentration that produced 50% inhibition was calculated. This value is presented as the IC50.

Chain of human recombinant BTK (Q06187 whole entry): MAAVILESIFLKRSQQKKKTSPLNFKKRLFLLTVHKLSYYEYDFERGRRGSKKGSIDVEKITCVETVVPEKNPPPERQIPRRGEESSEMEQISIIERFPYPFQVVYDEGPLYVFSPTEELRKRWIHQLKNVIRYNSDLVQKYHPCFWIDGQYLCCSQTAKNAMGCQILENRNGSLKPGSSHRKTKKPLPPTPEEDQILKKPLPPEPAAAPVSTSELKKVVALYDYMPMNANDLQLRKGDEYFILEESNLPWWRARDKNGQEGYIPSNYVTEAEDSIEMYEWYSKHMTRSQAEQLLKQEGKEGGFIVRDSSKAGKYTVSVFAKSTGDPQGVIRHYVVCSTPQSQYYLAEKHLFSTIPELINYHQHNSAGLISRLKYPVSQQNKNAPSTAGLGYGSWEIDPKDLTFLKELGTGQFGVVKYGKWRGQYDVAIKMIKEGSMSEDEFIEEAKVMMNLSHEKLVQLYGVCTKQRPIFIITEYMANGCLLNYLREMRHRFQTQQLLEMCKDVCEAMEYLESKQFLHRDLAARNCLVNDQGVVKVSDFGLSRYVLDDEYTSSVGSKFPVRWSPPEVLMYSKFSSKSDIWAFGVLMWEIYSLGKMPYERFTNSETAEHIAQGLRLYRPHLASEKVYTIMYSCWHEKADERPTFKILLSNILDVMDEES

SMILES	IC50 [nM]
CC1(C=C(C#N)C(=O)N2CCC[C@@H](n3nc(-c4ccc(Oc5ccccc5)cc4)c4c(N)nccc43)C2)CCN(C2COC2)CC1 [Compound 42, (R)-2-(3-(4-amino-3-(4-phenoxyphenyl)-1H-pyrazolo[4,3-c]pyridin-1-yl)piperidine-1-carbonyl)-3-(4-methyl-1-(oxetan-3-yl)piperidin-4-yl)acrylonitrile]	2.6
CC(C)(C=C(C#N)C(=O)N1CCC[C@@H](n2nc(-c3ccc(Oc4cccc(F)c4F)cc3)c3c(N)nccc32)C1)N1CCN(C2COC2)CC1 [Compound 29, (R)-2-(3-(4-amino-3-(4-(2,3-difluorophenoxy)phenyl)-1H-pyrazolo[4,3-c]pyridin-1-yl)piperidine-1-carbonyl)-4-methyl-4-(4-(oxetan-3-yl)piperazin-1-yl)pent-2-enenitrile]	0.8
CC(=O)N1CCN(C(C)(C)C=C(C#N)C(=O)N2CCC[C@@H](c3nc(-c4ccc(Oc5ccccc5)cc4)c4c(N)nccn34)C2)CC1 [Compound 57, (R)-4-(4-acetylpiperazin-1-yl)-2-(3-(8-amino-1-(4-phenoxyphenyl)imidazo[1,5-a]pyrazin-3-yl)piperidine-1-carbonyl)-4-methylpent-2-enenitrile]	1.1
COC(=O)N1CCN(C(C)(C)C=C(C#N)C(=O)N2CCC[C@@H](c3nc(-c4ccc(Oc5ccccc5)cc4)c4c(N)nccn34)C2)CC1 [Compound 56, (R)-methyl 4-(5-(3-(8-amino-1-(4-phenoxyphenyl)imidazo[1,5-a]pyrazin-3-yl)piperidin-1-yl)-4-cyano-2-methyl-5-oxopent-3-en-2-yl)piperazine-1-carboxylate]	1.2
CC1(C=C(C#N)C(=O)N2CCC[C@@H](c3nc(-c4ccc(Oc5ccccc5)cc4)c4c(N)nccn34)C2)CCOCC1 [Compound 54, (R)-2-(3-(8-amino-1-(4-phenoxyphenyl)imidazo[1,5-a]pyrazin-3-yl)piperidine-1-carbonyl)-3-(4-methyltetrahydro-2H-pyran-4-yl)acrylonitrile]	1.7
CC(C)(C=C(C#N)C(=O)N1CCC[C@@H](n2nc(-c3ccc(Oc4c(F)cccc4F)cc3)c3c(N)nccc32)C1)N1CCN(C2COC2)CC1 [Compound 28, (R)-2-(3-(4-amino-3-(4-(2,6-difluorophenoxy)phenyl)-1H-pyrazolo[4,3-c]pyridin-1-yl)piperidine-1-carbonyl)-4-methyl-4-(4-(oxetan-3-yl)piperazin-1-yl)pent-2-enenitrile]	0.9
CN1CCN(C(C)(C)C=C(C#N)C(=O)N2CCC[C@H]2Cn2nc(-c3ccc(Oc4ccccc4)cc3F)c3c(N)nccc32)CC1=O [Compound 32, (S)-2-(2-((4-amino-3-(2-fluoro-4-phenoxyphenyl)-1H-pyrazolo[4,3-c]pyridin-1-yl)methyl)pyrrolidine-1-carbonyl)-4-methyl-4-(4-methyl-3-oxopiperazin-1-yl)pent-2-enenitrile]	8.9
CC(C)(C=C(C#N)C(=O)N1CCC[C@@H](c2nc(-c3ccc(Oc4ccccc4)cc3)c3c(N)nccn23)C1)N1CCN(C2COC2)CC1 [Compound 35, (R)-2-(3-(8-amino-1-(4-phenoxyphenyl)imidazo[1,5-a]pyrazin-3-yl)piperidine-1-carbonyl)-4-methyl-4-(4-(oxetan-3-yl)piperazin-1-yl)pent-2-enenitrile]	2.1
CC(C)(C=C(C#N)C(=O)N1CCC[C@H]1Cn1nc(-c2ccc(C(=O)Nc3ccccn3)cc2)c2c(N)nccc21)N1CCOCC1 [Compound 21, (S)-4-(4-amino-1-((1-(2-cyano-4-methyl-4-morpholinopent-2-enoyl)pyrrolidin-2-yl)methyl)-1H-pyrazolo[4,3-c]pyridin-3-yl)-N-(pyridin-2-yl)benzamide]	18.6
CC(C)(C=C(C#N)C(=O)N1CCC[C@@H](n2nc(-c3ccc(Oc4ccccc4)cc3)c3c(N)nccc32)C1)N1CCN(C2(C)COC2)CC1 [Compound 39, (R)-2-(3-(4-amino-3-(4-phenoxyphenyl)-1H-pyrazolo[4,3-c]pyridin-1-yl)piperidine-1-carbonyl)-4-methyl-4-(4-(3-methyloxetan-3-yl)piperazin-1-yl)pent-2-enenitrile]	1.3
